Literature values as cited in PMC6278306, “Anti-Leishmanial and Cytotoxic Activities of a Series of Maleimides: Synthesis, Biological Evaluation and Structure-Activity Relationship” (Molecules, 2018).

Test system: 10 fungi
Set-up: method as in PMID 21481593
Settings: against 10 fungi; cited from earlier work

CCCCN1C(=O)C=CC1=O [N-butyl-maleimide]
MIC: 0.48 to 15.63 µg/mL

O=C1C=CC(=O)N1CCCCc1ccccc1 [N-(4-phenylbutyl)-maleimide]
MIC: 0.48 to 15.63 µg/mL
